# Legend:
# [1] = target: T1, AtITPK4 (Arabidopsis thaliana, UniProt O80568); test: HPLC kinase assay, substrate inhibition fit; format: biochemical; conditions: 1 mM Ins(1,4,6)P3; ATP 0-5 mM; 6 mM MgCl2; 20 mM HEPES pH 7.3; 25 °C; 3 µM enzyme; substrate inhibition at high ATP
# T1 construct: gene ITPK4; full-length; pOPINE, non-cleavable C-terminal 6xHis tag kept; Ni-NTA purified; HAD-like domain 1-150, ATP-grasp kinase domain from 151; no evidence of homo-oligomers
# [2] = target: T2, AtITPK1 (Arabidopsis thaliana, UniProt Q9SBA5); test: phosphate release assay; format: biochemical; conditions: 1 mM ATP; 10 µM enzyme; no inositol phosphate
# T2 construct: gene ITPK1; His tag with 3C cleavage implied
# T2 sequence (Q9SBA5 1-319): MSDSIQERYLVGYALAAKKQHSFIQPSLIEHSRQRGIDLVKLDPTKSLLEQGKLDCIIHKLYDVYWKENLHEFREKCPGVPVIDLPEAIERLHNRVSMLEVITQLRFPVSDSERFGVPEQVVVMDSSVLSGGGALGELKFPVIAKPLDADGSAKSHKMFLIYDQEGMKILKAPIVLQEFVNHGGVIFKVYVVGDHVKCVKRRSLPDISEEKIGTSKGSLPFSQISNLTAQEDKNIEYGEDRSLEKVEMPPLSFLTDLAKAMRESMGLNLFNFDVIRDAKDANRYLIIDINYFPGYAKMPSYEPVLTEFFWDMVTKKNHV
# T1 sequence (O80568 whole entry, the tested form may be a part): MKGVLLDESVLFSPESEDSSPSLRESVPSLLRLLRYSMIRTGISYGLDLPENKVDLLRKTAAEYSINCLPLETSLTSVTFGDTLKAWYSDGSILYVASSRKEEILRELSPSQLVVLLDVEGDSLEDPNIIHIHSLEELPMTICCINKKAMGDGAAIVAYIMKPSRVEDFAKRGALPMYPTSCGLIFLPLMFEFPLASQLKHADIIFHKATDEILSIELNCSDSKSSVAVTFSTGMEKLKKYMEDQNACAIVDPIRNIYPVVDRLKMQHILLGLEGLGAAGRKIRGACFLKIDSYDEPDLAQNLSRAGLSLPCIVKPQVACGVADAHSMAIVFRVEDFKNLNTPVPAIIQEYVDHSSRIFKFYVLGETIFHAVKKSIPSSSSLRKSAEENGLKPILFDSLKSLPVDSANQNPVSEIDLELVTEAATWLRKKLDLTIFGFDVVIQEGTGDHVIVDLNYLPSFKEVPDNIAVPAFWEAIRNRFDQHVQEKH
compound,measurement,setting,value
Nc1ncnc2c1ncn2[C@@H]1O[C@H](COP(=O)(O)OP(=O)(O)OP(=O)(O)O)[C@@H](O)[C@H]1O [ATP],Ki,[1],3.3 mM
same,phosphate release assay,[2],AtITPK1 showed much greater phosphate release from ATP in the absence of inositol phosphate substrate

# — PMC7614388, “Diversification in the inositol tris/tetrakisphosphate kinase (ITPK) family: crystal structure and enzymology of the outlier AtITPK4” (Biochemical Journal, 2023)
